In patent US12655175B2, “C17, C20, and C21 substituted neuroactive steroids and their methods of use” (Sage Therapeutics, LLC, priority 2016, dated 2026):

Molecular target: GABAA receptor
Assay: Steroid inhibition of [35S]-TBPS binding
Conditions: rat brain cortical membranes, 3 nM [35S]-TBPS, in the presence of 5 mM GABA
Method: Steroid Inhibition of TBPS Binding
Briefly, cortices are rapidly removed following decapitation of carbon dioxide-anesthetized Sprague-Dawley rats ([…]). The cortices are homogenized in 10 volumes of ice-cold 0.32 M sucrose using a glass/teflon homogenizer and centrifuged at 1500×g for 10 min at 4° C. The resultant supernatants are centrifuged at 10,000×g for 20 min at 4° C. to obtain the P2 pellets. The P2 pellets are resuspended in 200 mM NaCl/50 mM Na—K phosphate pH 7.4 buffer and centrifuged at 10,000×g for 10 min at 4° C. This washing procedure is repeated twice and the pellets are resuspended in 10 volumes of buffer. Aliquots ([…]) of the membrane suspensions are incubated with 3 nM [^35S]-TBPS and […] aliquots of test drug dissolved in dimethyl sulfoxide (DMSO) (final 0.5%) in the presence of 5 mM GABA. The incubation is brought to a final volume of 1.0 mL with buffer. […] Following a 90 min incubation at room temp, the assays are terminated by filtration through glass fiber filters (Schleicher and Schuell No. 32) using a cell harvester (Brandel) and rinsed three times with ice-cold buffer. Filter bound radioactivity is measured by liquid scintillation spectrometry. Non-linear curve fitting of the overall data for each drug averaged for each concentration is done using Prism (GraphPad).
Various compounds are or can be screened to determine their potential as modulators of [^35S]-TBPS binding in vitro. These assays are or can be performed in accordance with the above discussed procedures.

Row | Structure (SMILES) | IC50
1 | CC(=O)N[C@H]1CC[C@H]2[C@@H]3CC[C@H]4C[C@](C)(O)CC[C@]4(C)[C@H]3CC[C@]12C [Compound 95] | > 500 nM
2 | CN([C@H]1CC[C@H]2[C@@H]3CC[C@H]4C[C@](C)(O)CC[C@]4(C)[C@H]3CC[C@]12C)S(=O)(=O)c1ccccc1 [Compound 96] | > 500 nM
3 | C[C@@]1(O)CC[C@@]2(C)[C@@H](CC[C@@H]3[C@@H]2CC[C@]2(C)[C@@H](NS(C)(=O)=O)CC[C@@H]32)C1 [Compound 97] | > 500 nM
4 | CN([C@H]1CC[C@H]2[C@@H]3CC[C@H]4C[C@](C)(O)CC[C@]4(C)[C@H]3CC[C@]12C)S(C)(=O)=O [Compound 98] | > 500 nM
5 | COC(=O)N(C)[C@H]1CC[C@H]2[C@@H]3CC[C@H]4C[C@](C)(O)CC[C@]4(C)[C@H]3CC[C@]12C [Compound 99] | > 500 nM
6 | C[C@@]1(O)CC[C@H]2[C@H](CC[C@@H]3[C@@H]2CC[C@]2(C)[C@@H](c4ccccc4)CC[C@@H]32)C1 [Compound 101] | 100 to 500 nM
7 | Cc1ccc([C@H]2CC[C@H]3[C@@H]4CC[C@@H]5C[C@](C)(O)CC[C@@H]5[C@H]4CC[C@]23C)cc1 [Compound 102] | 100 to 500 nM
8 | C[C@@]1(O)CC[C@H]2[C@H](CC[C@@H]3[C@@H]2CC[C@]2(C)[C@@H](c4ccncc4)CC[C@@H]32)C1 [Compound 103] | 10 to 50 nM
9 | C[C@@]1(O)CC[C@H]2[C@H](CC[C@@H]3[C@@H]2CC[C@]2(C)[C@@H](c4cncnc4)CC[C@@H]32)C1 [Compound 104] | 50 to 100 nM
10 | C[C@@]1(O)CC[C@H]2[C@H](CC[C@@H]3[C@@H]2CC[C@]2(C)[C@@H](c4cccc(C#N)c4)CC[C@@H]32)C1 [Compound 105] | 10 to 50 nM
11 | C[C@@]1(O)CC[C@H]2[C@H](CC[C@@H]3[C@@H]2CC[C@]2(C)[C@@H](c4cccnc4)CC[C@@H]32)C1 [Compound 106] | 10 to 50 nM
12 | C[C@@]1(O)CC[C@H]2[C@H](CC[C@@H]3[C@@H]2CC[C@]2(C)[C@@H](C4CCOCC4)CC[C@@H]32)C1 [Compound 107] | > 500 nM
13 | C[C@@]1(O)CC[C@H]2[C@H](CC[C@@H]3[C@@H]2CC[C@]2(C)[C@@H](c4ccccn4)CC[C@@H]32)C1 [Compound 108] | 100 to 500 nM
14 | C[C@@]1(O)CC[C@H]2[C@H](CC[C@@H]3[C@@H]2CC[C@]2(C)[C@@H](C4CCCC4)CC[C@@H]32)C1 [Compound 109] | > 500 nM
15 | C[C@@]1(O)CC[C@H]2[C@H](CC[C@@H]3[C@@H]2CC[C@]2(C)[C@@H](c4ccc(C#N)cc4)CC[C@@H]32)C1 [Compound 110] | 10 to 50 nM
16 | Cn1cc([C@H]2CC[C@H]3[C@@H]4CC[C@@H]5C[C@](C)(O)CC[C@@H]5[C@H]4CC[C@]23C)cn1 [Compound 111] | 50 to 100 nM
17 | C[C@@]1(O)CC[C@@]2(C)[C@@H](CC[C@@H]3[C@@H]2CC[C@]2(C)[C@@H](OCc4ccccc4)CC[C@@H]32)C1 [Compound 112] | > 500 nM
18 | CO[C@H]1C[C@@]2(C)[C@@H](CC[C@@H]3[C@@H]2CC[C@]2(C)[C@@H]([N+](=O)[O-])CC[C@@H]32)C[C@@H]1O [Compound 118] | 10 to 50 nM
19 | CO[C@H]1C[C@]2(C)[C@@H]([N+](=O)[O-])CC[C@H]2[C@@H]2CC[C@H]3C[C@H](O)[C@@H](OC)C[C@]3(C)[C@H]21 [Compound 119] | 10 to 50 nM
20 | CO[C@H]1C[C@@]2(C)[C@@H](CC[C@@H]3[C@@H]2[C@@H](O)C[C@]2(C)[C@@H]([N+](=O)[O-])CC[C@@H]32)C[C@@H]1O [Compound 120] | 100 to 500 nM
21 | CO[C@H]1C[C@@]2(C)[C@@H](CC[C@H]3[C@@H]4CC[C@H]([N+](=O)[O-])[C@@]4(C)CC(=O)[C@@H]32)C[C@@H]1O [Compound 121] | 100 to 500 nM
22 | CCO[C@H]1C[C@@]2(C)[C@@H](CC[C@@H]3[C@@H]2[C@@H](O)C[C@]2(C)[C@@H]([N+](=O)[O-])CC[C@@H]32)C[C@@H]1O [Compound 122] | 100 to 500 nM
23 | CCO[C@H]1C[C@@]2(C)[C@@H](CC[C@H]3[C@@H]4CC[C@H]([N+](=O)[O-])[C@@]4(C)CC(=O)[C@@H]32)C[C@@H]1O [Compound 123] | 50 to 100 nM
24 | CC1(O)CC[C@H]2[C@@H]3CC[C@@H]4C[C@](C)(O)CC[C@@H]4[C@H]3CC[C@@]21C (stereo partly drawn) [Compound 126] | > 500 nM
